Results taken from paper PMC8053501 (Diabetes, Metabolic Syndrome and Obesity: Targets and …, 2021).
Entries after “also recorded” stand apart in the source; their conditions may differ. Read-outs that look alike come from different tables or passages of the source.

Tests used:
[1] = tested on: diabetes mellitus patients; experiment: Acute kidney injury; assay type: in vivo, human; conditions: for Association with AKI, Unadjusted (95% CI) / Association with AKI, Adjusted (95% CI): metformin as reference; for Association with AKI, Adjusted (95% CI): multivariate; for Events During the 90 days (AKI): primary endpoint, first 90 days, patients above 55 years; for Total endpoint (AKI events): primary plus secondary endpoint; for Events at secondary end (AKI): secondary endpoint, after 90 days of hospital admission; for Total Percent (incidence rate of AKI at the end of the study): share of the 4966 total outcomes; for Association with AKI compared to control drug metformin, in words: multivariate analysis
[2] = for Drug concentration, time course: normal mice, oral gavage, 3mg/kg
in vivo = conditions: male, ICR, mouse, po
[3] = Endpoint Diagnosis with 1047 Outcome
[4] = Secondary Diagnosis with 3919 Outcomes
[5] = 3 mg/kg, t1/2, mouse, oral gavage, Kidney
[6] = 3 mg/kg, t1/2, mouse, oral gavage, Liver
[7] = 3 mg/kg, t1/2, mouse, oral gavage, Plasma

Question: What does the source list for CC1(C)S[C@@H]2[C@H](NC(=O)[C@H](N)c3ccc(O)cc3)C(=O)N2[C@H]1C(=O)O [Amoxicillin, amoxicillin]?
Answer: Association with AKI, Unadjusted (95% CI) [1, 3]: 1.73 (1.16–1.85); Association with AKI, Adjusted (95% CI) [1, 3]: 1.36 (1.06–1.54); Association with AKI, Unadjusted (95% CI) [1, 4]: 1.17 (0.88–1.43); Association with AKI, Adjusted (95% CI) [1, 4]: 1.34 (1.07–1.82); Events During the 90 days (AKI) [1]: 48; Total endpoint (AKI events) [1]: 293; Events at secondary end (AKI) [1]: 245; Total Percent (incidence rate of AKI at the end of the study) [1]: 5.9%; Drug concentration, time course ([2]; Kidney, 0h): 9860; Drug concentration, time course ([2]; Kidney, 3h): 7320; Drug concentration, time course ([2]; Kidney, 6h): 5670; Drug concentration, time course ([2]; Kidney, 9h): 2340; Drug concentration, time course ([2]; Kidney, 12h): 730; Drug concentration, time course ([2]; Kidney, 15h): 60; Drug concentration, time course ([2]; Kidney, 18h): 0; Drug concentration, time course ([2]; Kidney, 21h): 0; Drug concentration, time course ([2]; Kidney, 24h): 0; Drug concentration, time course ([2]; Liver, 0h): 12,110; Drug concentration, time course ([2]; Liver, 3h): 8700; Drug concentration, time course ([2]; Liver, 6h): 5470; Drug concentration, time course ([2]; Liver, 9h): 1350; Drug concentration, time course ([2]; Liver, 12h): 200; Drug concentration, time course ([2]; Liver, 15h): 30; Drug concentration, time course ([2]; Liver, 18h): 0; Drug concentration, time course ([2]; Liver, 21h): 0; Drug concentration, time course ([2]; Liver, 24h): 0; Drug concentration, time course ([2]; Plasma, 0h): 370; Drug concentration, time course ([2]; Plasma, 3h): 80; Drug concentration, time course ([2]; Plasma, 6h): 45; Drug concentration, time course ([2]; Plasma, 9h): 0; Drug concentration, time course ([2]; Plasma, 12h): 0; Drug concentration, time course ([2]; Plasma, 15h): 0; Drug concentration, time course ([2]; Plasma, 18h): 0; Drug concentration, time course ([2]; Plasma, 21h): 0; Drug concentration, time course ([2]; Plasma, 24h): 0; Tmax (in vivo): 1 h; Tmax (in vivo; 3 mg/kg): 1 h; Cmax (in vivo; 3 mg/kg, oral gavage, Kidney): 4510 ng/mL; Cmax (in vivo; 3 mg/kg, oral gavage, Liver): 3980 ng/mL; Cmax (in vivo; 3 mg/kg, oral gavage, Plasma): 945 ng/mL; half-life (in vivo; 3 mg/kg, t1/2): 1.6 h

Question: Which results are given for Cc1ccc(-c2cc(C(F)(F)F)nn2-c2ccc(S(N)(=O)=O)cc2)cc1 [Celecoxib, celecoxib]?
Answer: Association with AKI, Unadjusted (95% CI) [1, 3]: 2.95 (2.68–3.25); Association with AKI, Adjusted (95% CI) [1, 3]: 2.32 (2.12–2.68); Association with AKI, Unadjusted (95% CI) [1, 4]: 1.87 (1.64–2.43); Association with AKI, Adjusted (95% CI) [1, 4]: 1.86 (1.53–2.77); Association with AKI compared to control drug metformin, in words [1]: increased rate of AKI; also recorded: higher risk for AKI; Events During the 90 days (AKI) [1]: 112; Total endpoint (AKI events) [1]: 533; Events at secondary end (AKI) [1]: 421; Total Percent (incidence rate of AKI at the end of the study) [1]: 10.72%; Drug concentration, time course ([2]; Kidney, 0h): 0; Drug concentration, time course ([2]; Kidney, 3h): 10,340; Drug concentration, time course ([2]; Kidney, 6h): 8900; Drug concentration, time course ([2]; Kidney, 9h): 6480; Drug concentration, time course ([2]; Kidney, 12h): 2100; Drug concentration, time course ([2]; Kidney, 15h): 450; Drug concentration, time course ([2]; Kidney, 18h): 0; Drug concentration, time course ([2]; Kidney, 21h): 0; Drug concentration, time course ([2]; Kidney, 24h): 0; Drug concentration, time course ([2]; Liver, 0h): 0; Drug concentration, time course ([2]; Liver, 3h): 13,200; Drug concentration, time course ([2]; Liver, 6h): 9800; Drug concentration, time course ([2]; Liver, 9h): 6250; Drug concentration, time course ([2]; Liver, 12h): 2300; Drug concentration, time course ([2]; Liver, 15h): 400; Drug concentration, time course ([2]; Liver, 18h): 50; Drug concentration, time course ([2]; Liver, 21h): 0; Drug concentration, time course ([2]; Liver, 24h): 0; Drug concentration, time course ([2]; Plasma, 0h): 0; Drug concentration, time course ([2]; Plasma, 3h): 250; Drug concentration, time course ([2]; Plasma, 6h): 50; Drug concentration, time course ([2]; Plasma, 9h): 30; Drug concentration, time course ([2]; Plasma, 12h): 0; Drug concentration, time course ([2]; Plasma, 15h): 0; Drug concentration, time course ([2]; Plasma, 18h): 0; Drug concentration, time course ([2]; Plasma, 21h): 0; Drug concentration, time course ([2]; Plasma, 24h): 0; Tmax (in vivo): 0.5 h; Tmax (in vivo; 3 mg/kg): 0.5 h; Cmax (in vivo; 3 mg/kg, oral gavage, Kidney): 12100 ng/mL; Cmax (in vivo; 3 mg/kg, oral gavage, Liver): 11700 ng/mL; Cmax (in vivo; 3 mg/kg, oral gavage, Plasma): 983 ng/mL; half-life (in vivo; [5]): 4.5 h; half-life (in vivo; [6]): 3.6 h; half-life (in vivo; [7]): 2.4 h

Question: With CC(C)Cc1ccc(C(C)C(=O)O)cc1 (stereo not shown) [Ibuprofen, ibuprofen] as the molecule, how does the “Association with AKI, Unadjusted (95% CI)” value [1, 3] read?
Answer: 3.14 (2.87–3.74)

Question: And the “Association with AKI, Adjusted (95% CI)” value [1, 3]?
Answer: 2.41 (1.91–2.54)

Question: What about the “Association with AKI, Unadjusted (95% CI)” value [1, 4] of the same molecule?
Answer: 2.68 (2.21–3.03)

Question: And the “Association with AKI, Adjusted (95% CI)” value [1, 4]?
Answer: 2.36 (1.84–2.93)

Question: And the “Association with AKI compared to control drug metformin, in words” value [1]?
Answer: higher risk for AKI

Question: And the “Association with AKI compared to control drug metformin, in words” value ([1]; listed as ibuprofen)?
Answer: increased rate of AKI

Question: What about the “Events During the 90 days (AKI)” value [1] of the same molecule?
Answer: 124

Question: And the “Events at secondary end (AKI)” value [1]?
Answer: 433

Question: And the “Total Percent (incidence rate of AKI at the end of the study)” value [1]?
Answer: 11.22%

Question: What about the “Drug concentration, time course” value ([2]; Kidney, 0h) of the same molecule?
Answer: 0

Question: What about the “Drug concentration, time course” value ([2]; Kidney, 6h) of the same molecule?
Answer: 16,500

Question: And the “Drug concentration, time course” value ([2]; Kidney, 9h)?
Answer: 9500

Question: What about the “Drug concentration, time course” value ([2]; Kidney, 12h) of the same molecule?
Answer: 3500

Question: What about the “Drug concentration, time course” value ([2]; Kidney, 15h) of the same molecule?
Answer: 1000

Question: And the “Drug concentration, time course” value ([2]; Kidney, 18h)?
Answer: 200

Question: And the “Drug concentration, time course” value ([2]; Kidney, 21h)?
Answer: 100

Question: What about the “Drug concentration, time course” value ([2]; Kidney, 24h) of the same molecule?
Answer: 0

Question: What about the “Drug concentration, time course” value ([2]; Liver, 0h) of the same molecule?
Answer: 0

Question: What about the “Drug concentration, time course” value ([2]; Liver, 3h) of the same molecule?
Answer: 9500

Question: And the “Drug concentration, time course” value ([2]; Liver, 6h)?
Answer: 7600

Question: What about the “Drug concentration, time course” value ([2]; Liver, 9h) of the same molecule?
Answer: 1800

Question: And the “Drug concentration, time course” value ([2]; Liver, 12h)?
Answer: 600

Question: And the “Drug concentration, time course” value ([2]; Liver, 15h)?
Answer: 150

Question: And the “Drug concentration, time course” value ([2]; Liver, 18h)?
Answer: 0

Question: What about the “Drug concentration, time course” value ([2]; Liver, 21h) of the same molecule?
Answer: 0

Question: What about the “Drug concentration, time course” value ([2]; Liver, 24h) of the same molecule?
Answer: 0

Question: And the “Drug concentration, time course” value ([2]; Plasma, 0h)?
Answer: 0

Question: And the “Drug concentration, time course” value ([2]; Plasma, 3h)?
Answer: 600

Question: What about the “Drug concentration, time course” value ([2]; Plasma, 6h) of the same molecule?
Answer: 400

Question: What about the “Drug concentration, time course” value ([2]; Plasma, 9h) of the same molecule?
Answer: 140

Question: What about the “Drug concentration, time course” value ([2]; Plasma, 12h) of the same molecule?
Answer: 0

Question: What about the “Drug concentration, time course” value ([2]; Plasma, 15h) of the same molecule?
Answer: 0

Question: What about the “Drug concentration, time course” value ([2]; Plasma, 18h) of the same molecule?
Answer: 0

Question: What about the “Drug concentration, time course” value ([2]; Plasma, 21h) of the same molecule?
Answer: 0

Question: What about the “Drug concentration, time course” value ([2]; Plasma, 24h) of the same molecule?
Answer: 0

Question: What about the Tmax (in vivo) of the same molecule?
Answer: 1 h

Question: What about the Tmax (in vivo; 3 mg/kg) of the same molecule?
Answer: 1 h

Question: What does the source list for COc1ccc2c(c1)c(CC(=O)O)c(C)n2C(=O)c1ccc(Cl)cc1 [Indomethacin, indomethacin]?
Answer: Association with AKI, Unadjusted (95% CI) [1, 3]: 2.81 (2.32–2.94); Association with AKI, Adjusted (95% CI) [1, 3]: 2.29 (2.05–2.65); Association with AKI, Unadjusted (95% CI) [1, 4]: 2.45(2.09–2.54); Association with AKI, Adjusted (95% CI) [1, 4]: 2.63 (2.41–2.72); Association with AKI compared to control drug metformin, in words [1]: increased rate of AKI; also recorded: higher risk for AKI; Events During the 90 days (AKI) [1]: 106; Total endpoint (AKI events) [1]: 497; Events at secondary end (AKI) [1]: 391; Total Percent (incidence rate of AKI at the end of the study) [1]: 10.01%; Tmax determined from the drug concentration in kidney and plasma (and liver) ([2]; mouse, tissue not separated): 1 h; Drug concentration, time course ([2]; Kidney, 0h): 0; Drug concentration, time course ([2]; Kidney, 3h): 8240; Drug concentration, time course ([2]; Kidney, 6h): 5200; Drug concentration, time course ([2]; Kidney, 9h): 3880; Drug concentration, time course ([2]; Kidney, 12h): 700; Drug concentration, time course ([2]; Kidney, 15h): 250; Drug concentration, time course ([2]; Kidney, 18h): 0; Drug concentration, time course ([2]; Kidney, 21h): 0; Drug concentration, time course ([2]; Kidney, 24h): 0; Drug concentration, time course ([2]; Liver, 0h): 0; Drug concentration, time course ([2]; Liver, 3h): 10,300; Drug concentration, time course ([2]; Liver, 6h): 8700; Drug concentration, time course ([2]; Liver, 9h): 5400; Drug concentration, time course ([2]; Liver, 12h): 1200; Drug concentration, time course ([2]; Liver, 15h): 150; Drug concentration, time course ([2]; Liver, 18h): 0; Drug concentration, time course ([2]; Liver, 21h): 0; Drug concentration, time course ([2]; Liver, 24h): 0; Drug concentration, time course ([2]; Plasma, 0h): 0; Drug concentration, time course ([2]; Plasma, 3h): 300; Drug concentration, time course ([2]; Plasma, 6h): 100; Drug concentration, time course ([2]; Plasma, 9h): 50; Drug concentration, time course ([2]; Plasma, 12h): 0; Drug concentration, time course ([2]; Plasma, 15h): 0; Drug concentration, time course ([2]; Plasma, 18h): 0; Drug concentration, time course ([2]; Plasma, 21h): 0; Drug concentration, time course ([2]; Plasma, 24h): 0; Tmax (in vivo; 3 mg/kg): 1 h; Cmax (in vivo; 3 mg/kg, oral gavage, Kidney): 10300 ng/mL; Cmax (in vivo; 3 mg/kg, oral gavage, Liver): 9650 ng/mL; Cmax (in vivo; 3 mg/kg, oral gavage, Plasma): 1170 ng/mL; half-life (in vivo; [5]): 3.8 h; half-life (in vivo; [6]): 3.1 h; half-life (in vivo; [7]): 2.7 h
